Patent US6727285B1, “Use of D-arginine and/or L-arginine to protect the amino groups of biological substances from damage, inactivation, or modification by toxic carbonyls and/or dicarbonyls” (priority 1995, dated 2004)
Read-outs that look alike come from different tables or passages of the source.

What was measured:
bovine serum albumin [1] = assay: Protectant pretreatment against methylglyoxal cross-linking of HEPES-buffered bovine serum albumin (Example 2, Table 5); assay type: biochemical; conditions: 2 ml 30% BSA, 1 millimole protectant, 1 millimole methylglyoxal
Protocol: As described in TABLE #5, 2 cc of 30% bovine serum albumin was added by glass pipette to each of 6 glass 7 ml. test tubes numbered 1 through 6. 1 millimole of L-arginine hydrochloride in 0.5 ml. of 6 molar HEPES buffer was added to tube #1. 1 millimole of L-arginine hydrochloride in 0.4 ml. of 6 molar HEPES buffer was added to tube #2. 1 millimole D-arginine hydrochloride in 0.5 ml. of 6 molar HEPES buffer was added to tube #3. 1 millimole D-arginine hydrochloride in 0.4 ml. of 6 molar HEPES buffer was added to tube #4. 0.5 ml. of 6 molar HEPES buffer was added to tube #5. 1 millimole of glycocyamine in 0.5 ml. of 6 molar HEPES buffer was added to tube #6.
The pH was measured periodically and observations were made and recorded. At three hours the heating unit was reduced to room temperature, 75 degrees Fahrenheit, to prevent drying and the reaction allowed to proceed.

bovine serum albumin [2] = assay: Protectant pretreatment against methylglyoxal gel formation of bovine serum albumin, pH adjusted by titration NaOH/HCL (Example 3, Table 6); assay type: biochemical
Protocol: As described in TABLE #6,2 ml. bovine serum albumin 30% solution was added to each of eight 7 ml. glass test tubes. One millimole of guanidine was added to tube #1; no protectant was added to tubes #2, #3, and #4. […] Into test tube #6 was added 1 millimole of L-arginine hydrochloride, the pH was adjusted to 7.40 by micro-drop titration. Into test tube #7 was added 1 millimole of L-arginine hydrochloride, not pH adjusted. Into test tube #8 was added 1 millimole of D-arginine hydrochloride, not pH adjusted. […] After 3 hours the heating unit was turned off reducing the temperature to room temperature, 75 degrees Fahrenheit, to prevent the drying out of the sample and the reaction was allowed to proceed overnight.

bovine serum albumin [3] = molecular target: T1, bovine serum albumin (Bos taurus, UniProt P02769); assay type: biochemical; conditions: for gel formation of albumin samples: pretreated with 1 millimole, 2 ml 30% BSA, 1 millimole methylglyoxal, HEPES buffered, 98.6 F., 217 rpm
T1 construct: HEPES salt, HEPES acid, and bovine serum albumin was obtained from Sigma; purchased Sigma
Protocol: The magnetic stirrer was set to 217 rpm. The pH was checked at five minutes.
The pH was constantly monitored as were the color and fluid characteristics of the mixture. […] The end-point was recorded when a visible non-flowing gel formed in the tube and could not be caused to flow when the tube was inverted at 40 degrees below the horizontal for two minutes.

bovine serum albumin [4] = assay: Blocking of methylglyoxal or glyoxal cross-linking (gel formation) of albumin, inventor's tests; assay type: biochemical; conditions: for gelatin formation of bovine serum albumin when methylglyoxal is added: acidic solution, room temperature, 2 cc BSA pretreated with one millimole; for gelatin formation of bovine serum albumin when methylglyoxal is added / conversion of bovine serum albumin from liquid to gelatin by methylglyoxal: one millimole methylglyoxal; for blocking of the cross-linking of albumin by methylglyoxal or glyoxal: arginines: hydrochloride salts and free base forms; for conversion of bovine serum albumin from liquid to gelatin by methylglyoxal: pH 6.4 to 7.4, room temperature, 75, 80, 83, 90 and 98.6 degrees Fahrenheit, 2 cc 30% BSA pretreated with one millimole; for methylglyoxal-induced gel formation of liquid bovine serum albumin: pretreatment, free base or hydrochloride form
ovalbumin = molecular target: T2, ovalbumin (Gallus gallus, UniProt P01012); assay: Reaction of methylglyoxal with ovalbumin (egg albumin); assay type: biochemical
T2 sequence (P01012 1-386): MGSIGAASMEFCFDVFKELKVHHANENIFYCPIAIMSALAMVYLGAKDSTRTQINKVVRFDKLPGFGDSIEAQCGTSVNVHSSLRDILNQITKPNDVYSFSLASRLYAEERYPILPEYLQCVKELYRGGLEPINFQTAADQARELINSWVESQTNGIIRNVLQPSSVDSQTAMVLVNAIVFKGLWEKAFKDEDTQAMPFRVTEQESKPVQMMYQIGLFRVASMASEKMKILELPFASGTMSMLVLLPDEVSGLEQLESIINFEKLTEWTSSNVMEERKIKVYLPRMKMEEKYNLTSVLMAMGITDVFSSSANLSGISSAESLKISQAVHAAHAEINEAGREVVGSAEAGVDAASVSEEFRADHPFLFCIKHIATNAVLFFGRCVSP

[5] = test system: New Zealand White rabbits made diabetic by streptozotocin; conditions: arginine HCL oral 30 mg/kg/day or i.v. 10 mg/kg/day, radiolabeled methylglyoxal i.v. daily
Protocol: (§1) Group 2: The rabbits of group 2 are fed a diet supplemented with oral D-arginine HCL 30 mg/kg/day (or an appropriate dose which can range from, for example, but not limited to, 1 mg/kg/day to 100 mg/kg/day).
(§2) Group 3: The rabbits of group 3 are fed a diet supplemented with oral L-arginine HCL 30 mg/kg/day (or an appropriate dose which can range from, for example, but not limited to, 1 mg/kg/day to 100 mg/kg/day).
(§3) Group 4: The rabbits of group 4 receive L-arginine HCL by ear vein in 10 cc normal saline at a dose of 10 mg/kg/day (or an appropriate dose which can range from, for example, but not limited to, 1 mg/kg/day to 100 mg/kg/day) for the duration of the experiment.
(§4) Group 5: The rabbits of group 5 receive D-arginine HCL by ear vein in 10 cc normal saline at a dose of 10 mg/kg/day (or an appropriate dose which can range from, for example, but not limited to, 1 mg/kg/day to 100 mg/kg/day) for the duration of the experiment.
(§5) At the end of the experiment, all animals are sacrificed and their kidneys removed, sectioned and examined for gross and microscopic changes, as well as for accumulation of the radiolabel, with special attention to the glomerular basement membrane.

[6] = test system: New Zealand White rabbits made diabetic by streptozotocin; assay: Streptozotocin-diabetic rabbits given i.v. radiolabeled glucose, kidney examination (Example 6); conditions: arginine HCL oral 30 mg/kg/day or i.v. 10 mg/kg/day, radiolabeled glucose i.v. daily
Protocol: as §1, §2, §3, §4, §5

[7] = test system: insulin dependent diabetic; assay: L-arginine hydrochloride in a diabetic patient with painful feet (Example 9); assay type: in vivo, human; conditions: 700 mg twice a day (1,400 mg per day), 120kg, painful feet secondary to vasculopathy and/or neuropathy, within 6 weeks
[8] = test system: New Zealand White rabbits; conditions: arginine HCL oral 30 mg/kg/day or i.v. 10 mg/kg/day, methylglyoxal i.v. daily
Protocol: as §1, §2, §3, §4

[9] = test system: non-diabetic animal model; assay: Non-diabetic rabbits challenged with radiolabeled methylglyoxal (Example 7); conditions: otherwise identical to Example 5
bovine serum albumin [10] = molecular target: T1, bovine serum albumin; assay type: biochemical
Protocol: As described in TABLE #4, 2 cc of 30% bovine serum albumin (BSA) was added by glass pipette (Kimax 1/100) to each of three glass 7 ml. test tubes numbered 1, 2, and 3. 0.4 ml. of 6 molar HEPES buffer was added to tube #1 by glass pipette. 0.5 ml. of 6 molar HEPES buffer was added to test tube #2. 0.3 ml. of 6 molar HEPES buffer was added to tube #3.

[11] = 2 ml BSA + 1 millimole protectant not pH adjusted, 0.18 ml of 40% pH-adjusted methylglyoxal
[12] = 2 ml BSA + 1 millimole protectant, pH adjusted to 7.40-7.46 with NaOH/HCL, 0.18 ml of 40% pH-adjusted methylglyoxal

T1 sequence (P02769 25-607): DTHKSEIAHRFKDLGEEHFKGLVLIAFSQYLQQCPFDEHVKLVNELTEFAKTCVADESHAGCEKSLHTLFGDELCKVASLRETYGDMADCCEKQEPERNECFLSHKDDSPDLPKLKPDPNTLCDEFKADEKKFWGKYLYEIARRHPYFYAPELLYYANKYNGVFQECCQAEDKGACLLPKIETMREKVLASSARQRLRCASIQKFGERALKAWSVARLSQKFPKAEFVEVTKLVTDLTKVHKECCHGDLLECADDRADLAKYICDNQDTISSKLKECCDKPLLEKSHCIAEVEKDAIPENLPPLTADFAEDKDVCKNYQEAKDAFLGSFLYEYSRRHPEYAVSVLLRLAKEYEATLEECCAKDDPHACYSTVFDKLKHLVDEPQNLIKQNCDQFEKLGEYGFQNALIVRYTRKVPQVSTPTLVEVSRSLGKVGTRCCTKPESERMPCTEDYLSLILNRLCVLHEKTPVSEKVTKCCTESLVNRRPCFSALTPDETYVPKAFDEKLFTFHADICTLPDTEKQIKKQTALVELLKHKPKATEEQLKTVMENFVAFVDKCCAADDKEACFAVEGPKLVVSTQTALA

Cl.N=C(N)NCCC[C@@H](N)C(=O)O [D-arginine Hydrochloride, D-arginine hydrochloride]
FINAL FORM (bovine serum albumin [1]; 6 m HEPES 0.4 ml): LIQUID
FINAL FORM (bovine serum albumin [1]; 6 m HEPES 0.5 cc/ml): LIQUID
FINAL FORM (bovine serum albumin [2]; [11]): LIQUID
Observation overnight (bovine serum albumin [2]; [11]): later; remained liquid overnight;
FINAL FORM (bovine serum albumin [2]; [12]): LIQUID
Observation at 1 hr. 5 min. (bovine serum albumin [2]; [12]): brownish, yellow liquid,
Observation overnight (bovine serum albumin [2]; [12]): Remained liquid
gel formation of albumin samples (bovine serum albumin [3]): did not gel at any time and remained liquid

N=C(N)NCCC[C@@H](N)C(=O)O [D-arginine]
binding of methylglyoxal to bovine serum albumin (bovine serum albumin [4]): capable of blocking the binding
gelatin formation of bovine serum albumin when methylglyoxal is added (bovine serum albumin [4]): prevent gelatin formation
blocking of the cross-linking of albumin by methylglyoxal or glyoxal (bovine serum albumin [4]): worked consistently
conversion of bovine serum albumin from liquid to gelatin by methylglyoxal (bovine serum albumin [4]): the albumin remains liquid
methylglyoxal-induced gel formation of liquid bovine serum albumin (bovine serum albumin [4]): block methylglyoxal-induced gel formation
binding of methylglyoxal to egg albumin (ovalbumin): capable of blocking the binding
accumulation of radiolabeled methylglyoxal in the kidneys compared with the control [5]: reduced or absent
gross and microscopic changes in the kidney compared to the control [5]: reduced or absent
accumulation of radiolabeled glucose metabolites in the kidneys compared with the control [6]: reduced or absent
gross and microscopic changes in the kidney compared to the control [6]: reduced or absent

Cl.N=C(N)NCCC[C@H](N)C(=O)O [L-arginine Hydrochloride, L-arginine hydrochloride]
FINAL FORM (bovine serum albumin [1]; 6 m HEPES 0.4 ml): LIQUID
FINAL FORM (bovine serum albumin [1]; 6 m HEPES 0.5 cc/ml): LIQUID
Observation overnight (bovine serum albumin [2]; [11]): became viscous overnight;
FINAL FORM (bovine serum albumin [2]; [12]): LIQUID
Observation overnight (bovine serum albumin [2]; [12]): later; remained liquid overnight;
gel formation of albumin samples (bovine serum albumin [3]): did not gel at any time and remained liquid
pain in both the feet and hands [7]: marked reduction in pain

N=C(N)NCCC[C@H](N)C(=O)O [L-arginine]
binding of methylglyoxal to bovine serum albumin (bovine serum albumin [4]): capable of blocking the binding
gelatin formation of bovine serum albumin when methylglyoxal is added (bovine serum albumin [4]): prevent gelatin formation
blocking of the cross-linking of albumin by methylglyoxal or glyoxal (bovine serum albumin [4]): worked consistently
conversion of bovine serum albumin from liquid to gelatin by methylglyoxal (bovine serum albumin [4]): the albumin remains liquid
methylglyoxal-induced gel formation of liquid bovine serum albumin (bovine serum albumin [4]): block methylglyoxal-induced gel formation
binding of methylglyoxal to egg albumin (ovalbumin): capable of blocking the binding
accumulation of radiolabeled methylglyoxal in the kidneys compared with the control [5]: reduced or absent
gross and microscopic changes in the kidney compared to the control [5]: reduced or absent
accumulation of radiolabeled glucose metabolites in the kidneys compared with the control [6]: reduced or absent
gross and microscopic changes in the kidney compared to the control [6]: reduced or absent

N=C(N)NN [aminoguanidine, reference compound]
blocking of the cross-linking of albumin by methylglyoxal or glyoxal (bovine serum albumin [4]): do not block

N=C(N)NCCC[C@H](N)C(=O)O [arginine, 2-amino-5-guanidovaleric acid]
level of methylglyoxal in the blood [8]: reduces
changes caused by methylglyoxal [9]: blocks

NC(=O)NCCC[C@H](N)C(=O)O [citrulline, reference compound]
blocking of the cross-linking of albumin by methylglyoxal or glyoxal (bovine serum albumin [4]): do not block

NCCS [cystieamine, reference compound]
blocking of the cross-linking of albumin by methylglyoxal or glyoxal (bovine serum albumin [4]): do not block

N[C@@H](CSSC[C@H](N)C(=O)O)C(=O)O [cystine, reference compound]
blocking of the cross-linking of albumin by methylglyoxal or glyoxal (bovine serum albumin [4]): do not block

N/N=C(\N)NN [diaminoguanidine, reference compound]
blocking of the cross-linking of albumin by methylglyoxal or glyoxal (bovine serum albumin [4]): do not block

N=C(N)NCC(=O)O [glycocyamine, reference compound]
blocking of the cross-linking of albumin by methylglyoxal or glyoxal (bovine serum albumin [4]): do not block

N=C(N)N [guanidine, reference compound]
FINAL FORM (bovine serum albumin [2]; 2 ml BSA, 1 millimole protectant added to BSA, 1 millimole (0.18 ml of 40%) methylglyoxal pH adjusted to 7.40): GEL
blocking of the cross-linking of albumin by methylglyoxal or glyoxal (bovine serum albumin [4]): do not block

CC(=O)C=O [methylglyoxal]
FINAL FORM (bovine serum albumin [10]; pH 7.35): GEL
time after mixing until firm yellow gelatin formed (bovine serum albumin [10]; sample 1: 2 ml 30% BSA + 0.4 cc 6 m HEPES (pH 7.40), 1 millimole methylglyoxal (0.18 ml of 40%, pH not adjusted), no protectant, 98.6° F.): <5 minutes after mixing
time until sudden gelatin formation (bovine serum albumin [10]; sample 3: 2 ml 30% BSA + 0.3 cc 6 m HEPES (pH 7.35), 0.20 ml of 40% methylglyoxal buffered to 7.36, counted from the 5-minute pH reading ('33 minutes later')): pH 7.07 at 5 minutes; 33
product formed with bovine serum albumin (bovine serum albumin [3]; pH 6.4 to 7.4, buffered and unbuffered systems): solid gelatin
conversion of liquid ovalbumin (ovalbumin; 0.2 cc of 40% methylglyoxal, two cc of liquid ovalbumin, within a matter of hours, 1976 unpublished works): from liquid to solid gelatin

NC(N)=O [urea, reference compound]
blocking of the cross-linking of albumin by methylglyoxal or glyoxal (bovine serum albumin [4]): do not block
